Literature values, collected in US20260146084A1, “METHODS FOR TREATING MYELOFIBROSIS AND RELATED CONDITIONS” (Disc Medicine, Inc., priority 2019, published 2026).
Values belong to the compound of their own block, whether it stands above or below them.

Tests used:
[1] = test system: pro-inflammatory cytokines; details: mouse models
[2] = test system: myelofibrosis patients
[3] = biological target: T1, ACVR1 (HJV signaling partner) (Homo sapiens, UniProt Q04771)
T1 sequence (Q04771 21-509): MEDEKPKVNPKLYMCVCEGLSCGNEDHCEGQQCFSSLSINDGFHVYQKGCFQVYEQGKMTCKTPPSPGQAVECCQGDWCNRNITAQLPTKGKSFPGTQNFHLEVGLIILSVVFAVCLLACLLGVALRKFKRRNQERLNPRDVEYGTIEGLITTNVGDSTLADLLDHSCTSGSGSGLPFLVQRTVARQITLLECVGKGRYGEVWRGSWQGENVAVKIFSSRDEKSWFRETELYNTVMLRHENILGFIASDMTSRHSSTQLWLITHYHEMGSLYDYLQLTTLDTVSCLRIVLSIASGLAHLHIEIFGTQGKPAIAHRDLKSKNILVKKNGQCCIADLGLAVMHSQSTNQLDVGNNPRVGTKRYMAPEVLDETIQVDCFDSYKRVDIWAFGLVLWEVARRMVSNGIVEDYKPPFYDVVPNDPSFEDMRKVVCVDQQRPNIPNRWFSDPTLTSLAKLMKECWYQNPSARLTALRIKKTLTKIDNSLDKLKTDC

[4] = biological target: JAK1 (Homo sapiens, UniProt P23458)
Sequence of JAK1 (P23458 whole entry): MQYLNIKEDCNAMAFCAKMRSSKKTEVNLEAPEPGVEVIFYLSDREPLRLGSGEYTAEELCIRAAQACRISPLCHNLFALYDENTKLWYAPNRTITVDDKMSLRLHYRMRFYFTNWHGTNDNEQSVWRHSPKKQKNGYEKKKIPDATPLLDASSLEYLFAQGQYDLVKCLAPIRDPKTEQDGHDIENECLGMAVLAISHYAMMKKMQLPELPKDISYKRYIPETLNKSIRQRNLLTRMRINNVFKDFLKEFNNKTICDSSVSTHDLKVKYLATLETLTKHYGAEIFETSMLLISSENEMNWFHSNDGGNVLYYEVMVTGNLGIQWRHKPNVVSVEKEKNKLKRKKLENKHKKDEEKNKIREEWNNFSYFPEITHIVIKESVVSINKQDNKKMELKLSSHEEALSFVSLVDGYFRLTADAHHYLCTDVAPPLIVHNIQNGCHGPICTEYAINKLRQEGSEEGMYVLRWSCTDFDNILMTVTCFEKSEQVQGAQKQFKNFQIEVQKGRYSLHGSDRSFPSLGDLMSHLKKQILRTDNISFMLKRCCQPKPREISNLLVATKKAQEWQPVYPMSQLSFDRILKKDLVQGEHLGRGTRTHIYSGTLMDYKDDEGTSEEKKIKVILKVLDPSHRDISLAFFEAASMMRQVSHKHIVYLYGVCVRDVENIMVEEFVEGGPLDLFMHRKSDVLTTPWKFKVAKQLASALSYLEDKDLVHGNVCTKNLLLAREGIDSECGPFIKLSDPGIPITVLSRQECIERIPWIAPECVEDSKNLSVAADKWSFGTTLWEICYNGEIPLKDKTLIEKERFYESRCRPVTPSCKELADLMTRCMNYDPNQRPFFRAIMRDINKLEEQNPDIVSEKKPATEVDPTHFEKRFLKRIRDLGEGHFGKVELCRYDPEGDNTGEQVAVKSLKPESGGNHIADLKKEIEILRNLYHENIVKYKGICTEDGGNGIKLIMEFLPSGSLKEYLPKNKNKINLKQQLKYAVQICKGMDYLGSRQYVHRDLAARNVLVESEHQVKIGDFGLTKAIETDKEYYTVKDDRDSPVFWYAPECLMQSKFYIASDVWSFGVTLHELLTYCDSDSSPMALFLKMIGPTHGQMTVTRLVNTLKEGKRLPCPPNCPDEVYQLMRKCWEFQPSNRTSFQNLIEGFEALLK

[5] = biological target: JAK2 (Homo sapiens, UniProt O60674)
Sequence of JAK2 (O60674 whole entry): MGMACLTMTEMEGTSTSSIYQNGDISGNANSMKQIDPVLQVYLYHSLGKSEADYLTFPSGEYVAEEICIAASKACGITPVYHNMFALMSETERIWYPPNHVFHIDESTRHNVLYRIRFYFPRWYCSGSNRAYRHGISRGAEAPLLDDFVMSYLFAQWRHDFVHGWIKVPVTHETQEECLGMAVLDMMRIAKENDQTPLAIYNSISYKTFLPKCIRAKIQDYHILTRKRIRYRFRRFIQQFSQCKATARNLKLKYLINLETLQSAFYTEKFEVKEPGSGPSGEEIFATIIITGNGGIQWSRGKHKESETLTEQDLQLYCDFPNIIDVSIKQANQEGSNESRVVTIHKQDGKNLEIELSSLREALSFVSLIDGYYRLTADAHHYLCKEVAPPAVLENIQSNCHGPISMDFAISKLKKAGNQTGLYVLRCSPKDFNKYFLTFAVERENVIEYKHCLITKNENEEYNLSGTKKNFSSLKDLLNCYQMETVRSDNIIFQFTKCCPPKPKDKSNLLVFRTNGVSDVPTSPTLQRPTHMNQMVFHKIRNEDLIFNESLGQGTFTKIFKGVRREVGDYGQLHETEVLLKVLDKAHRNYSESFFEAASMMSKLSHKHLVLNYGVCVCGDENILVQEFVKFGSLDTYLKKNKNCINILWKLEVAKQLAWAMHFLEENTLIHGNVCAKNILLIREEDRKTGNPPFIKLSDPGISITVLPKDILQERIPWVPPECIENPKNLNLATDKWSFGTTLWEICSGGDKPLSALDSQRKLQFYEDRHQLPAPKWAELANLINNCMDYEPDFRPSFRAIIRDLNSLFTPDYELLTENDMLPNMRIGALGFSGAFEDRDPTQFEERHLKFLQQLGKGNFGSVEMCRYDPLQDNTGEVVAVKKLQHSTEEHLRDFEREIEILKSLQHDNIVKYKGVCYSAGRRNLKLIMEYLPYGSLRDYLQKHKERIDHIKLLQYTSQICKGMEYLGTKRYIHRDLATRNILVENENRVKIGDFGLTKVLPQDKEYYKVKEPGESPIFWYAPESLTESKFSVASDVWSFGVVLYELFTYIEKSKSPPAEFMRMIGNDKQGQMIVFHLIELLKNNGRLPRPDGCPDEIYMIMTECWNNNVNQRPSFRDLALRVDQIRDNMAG

SMILES: Cc1noc2c1-c1ccccc1C(c1ccc(Cl)cc1)=N[C@H]2CC(N)=O [CP-0610]
pro-inflammatory cytokines [1]: downregulated pro-inflammatory cytokines

effect on anemia [2]: worsens anemia
SMILES: Cc1cnc(Nc2ccc(OCCN3CCCC3)cc2)nc1Nc1cccc(S(=O)(=O)NC(C)(C)C)c1 [Fedratinib]

inhibition of ACVR1 [3]: inhibits | inhibition of JAK1 [4]: inhibits | effect on anemia [2]: improves anemia | inhibition of JAK2 [5]: inhibits
SMILES: N#CCNC(=O)c1ccc(-c2ccnc(Nc3ccc(N4CCOCC4)cc3)n2)cc1 [Momelotinib]
effect on splenomegaly and disease symptoms [2]: improving disease symptoms

effect on anemia [2]: worsens anemia
SMILES: N#CC[C@H](C1CCCC1)n1cc(-c2ncnc3[nH]ccc23)cn1 [ruxolitinib]
